This experiment deals with T1, EED (1-441)-His protein (Homo sapiens, UniProt O75530).
T1 construct: 20 nM EED (1-441)-His protein
Description: EED-H3K27Me3 peptide competition binding assay by AlphaScreen. As to conditions: read-out: Alpha screen. Here is the method: EED-H3K27Me3 Peptide Competition Binding Assay by AlphaScreen (α-Screen):
The compounds at each concentration (2.5 μl of each) were transferred into a 384-well Perkin Elmer OptiPlate-384 white plates. 5 μl of solutions containing 20 nM EED (1-441)-His protein in the buffer (25 mM HEPES, pH 8, 0.02% Tween-20, 0.5% BSA) were added to the wells and then incubated with compound for 15 min. 2.5 μl of solutions containing 20 nM biotin-H3K27Me3 (19-33) peptide in the buffer (25 mM HEPES, pH 8, 0.02% Tween-20, 0.5% BSA) were added to the wells and then incubated with compound for 30 min. AlphaScreen detection beads mix was prepared immediately before use by mixing nickel chelate acceptor beads and streptavidin donor beads in a 1:1 ratio (Perkin Elmer, Product No. 6760619C/M/R) into the buffer described above. Then 10 μl of the detection beads mix was added to the plate and incubated in the dark at RT for 1 h. The final concentration of donor and acceptor beads was 10 μg/ml for each. Plates were read on CLARIOStar plate reader (BMG Labtech) using the AlphaScreen setting adapted for optimal signal detection with a 615 nm filter, after sample excitation at 680 nm. The emission signal at 615 nm was used to quantify compound inhibition. AlphaScreen signals were normalized based on the reading coming from the positive (maximum signal control) and negative controls (minimum signal control) to give percentage of activities left. The data were then fit to a dose response equation to get the IC50 values.
For orientation: Bead proximity is the source of the signal in Alpha formats.

This note sets out measurements from US20240316051A1, “A PHARMACEUTICAL COMBINATION AND USE THEREOF” (Ascentage Pharma (Suzhou) Co., Ltd., priority 2021, published 2024).

Read-outs that look alike come from different tables or passages of the source.

T1 sequence (O75530 whole entry): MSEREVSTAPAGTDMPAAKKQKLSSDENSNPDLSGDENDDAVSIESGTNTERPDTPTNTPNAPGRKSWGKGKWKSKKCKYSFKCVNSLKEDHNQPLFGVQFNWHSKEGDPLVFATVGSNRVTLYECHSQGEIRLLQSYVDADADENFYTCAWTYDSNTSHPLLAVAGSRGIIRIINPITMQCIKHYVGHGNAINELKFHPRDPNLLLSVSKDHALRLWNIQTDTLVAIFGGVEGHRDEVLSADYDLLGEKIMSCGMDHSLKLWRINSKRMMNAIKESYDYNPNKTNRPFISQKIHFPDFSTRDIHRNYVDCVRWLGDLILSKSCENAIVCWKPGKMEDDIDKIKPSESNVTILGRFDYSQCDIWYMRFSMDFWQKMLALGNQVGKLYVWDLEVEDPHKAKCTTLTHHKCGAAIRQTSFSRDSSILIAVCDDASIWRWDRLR

As for `O=C1NCCc2ccccc2-c2cnc(NCc3c(F)ccc4c3CCO4)n3cnc1c23` [E 28, 13-(((5-fluoro-2,3-dihydrobenzofuran-4-yl)methyl)amino)-5,6-dihydro-2,4, 12, 13a-tetraazabenzo[4,5] cyclonona[1,2,3-cd]inden-3(4H)-one], for the setting “IC50 class, Table 4B”, the IC50 is 10 to 100 nM.

For the compound `Cc1cc2c(cn1)-c1cnc(NCc3c(F)ccc4c3CCO4)n3cnc(c13)C(=O)N(C(C)C)C2` [E 2, 12-(((5-fluoro-2,3-dihydrobenzofuran-4-yl)methyl)amino)-4-isopropyl-7-methyl-4,5-dihydro-3H-2,4,8,11,12a-pentaazabenzo[4,5]cycloocta[1,2,3-cd] inden-3-one], the IC50 (IC50 class, Table 4B) is below 10 nM.

On to `Fc1ccc2c(c1CNc1ncc3c4c(ncn14)COCc1ncccc1-3)CCO2` [Compound 2, N-((5-fluoro-2,3-dihydrobenzofuran-4-yl)methyl)-3H,5H-4-oxa-2,6,11,12a-tetraazabenzo[4,5]cycloocta[1,2,3-cd]inden-12-amine], for which the IC50 (Table 4A) is above 10 nM.

As for `Cc1ccc2c(n1)COC(=O)c1ncn3c(NCc4c(F)ccc5c4CCO5)ncc-2c13` [Compound 18, 12-(((5-fluoro-2,3-dihydrobenzofuran-4-yl)methyl)amino)-7-methyl-3H,5H-4-oxa-2,6,11,12a-tetraazabenzo[4,5]cycloocta[1,2,3-cd]inden-3-one], the IC50 (Table 4A) stood at 0.7 nM.

Regarding `O=C1OCc2cc(C(F)(F)F)ccc2-c2cnc(NCc3c(F)ccc4c3CCO4)n3cnc1c23` [Compound 8, 12-(((5-fluoro-2,3-dihydrobenzofuran-4-yl)methyl)amino)-7-(trifluoromethyl)-3H,5H-4-oxa-2,11,12a-triazabenzo[4,5]cycloocta[1,2,3-cd]inden-3-one], the IC50 (Table 4A) is 1.97 nM.

For `O=C1NCc2ccccc2-c2cnc(NCc3c(F)ccc4c3CCO4)n3cnc1c23` [Compound 15, 12-(((5-fluoro-2,3-dihydrobenzofuran-4-yl)methyl)amino)-4,5-dihydro-3H-2,4,11,12a-tetraazabenzo [4,5]cycloocta[1,2,3-cd]inden-3-one], for the setting “Table 4A”, the IC50 was 0.52 nM.

Take `O=C1NCc2nc(C(F)(F)F)ccc2-c2cnc(NCc3c(F)ccc4c3CCO4)n3cnc1c23` [Compound 25, 12-(((5-fluoro-2,3-dihydrobenzofuran-4-yl)methyl)amino)-7-(trifluoromethyl)-4,5-dihydro-3H-2,4,6, 11,12a-pentaazabenzo[4,5]cycloocta[1,2,3-cd] inden-3-one]: the IC50 (Table 4A) amounted to 3.31 nM.

On to `Cn1cc2c(n1)COC(=O)c1ncn3c(NCc4c(F)ccc5c4CCO5)ncc-2c13` [Compound 54, 11-(((5-fluoro-2,3-dihydrobenzofuran-4-yl)methyl)amino)-7-methyl-5,7-dihydro-3H-4-oxa-2,6,7,10, 11a-pentaazacyclopenta[4,5]cycloocta[1,2,3-cd] inden-3-one], for which the IC50 (Table 4A) is 0.95 nM.

Take `COCCN1Cc2nc(C(F)(F)F)ccc2-c2cnc(NCc3c(F)ccc4c3CCO4)n3cnc(c23)C1=O` [Compound 57, 12-(((5-fluoro-2,3-dihydrobenzofuran-4-yl)methyl)amino)-4-(2-methoxyethyl)-7-(trifluoromethyl)-4,5-dihydro-3H-2,4,6,11,12a-pentaazabenzo[4,5] cycloocta[1,2,3-cd]inden-3-one]: the IC50 (Table 4A) stood at 4.2 nM.

For `O=C1OCc2cc(C(F)(F)F)ccc2-c2cnc(NCc3cccc4c3OCO4)n3cnc1c23` [Compound 27, 12-((benzo[d][1,3]dioxol-4-ylmethyl)amino)-7-(trifluoromethyl)-3H,5H-4-oxa-2,11,12a-triazabenzo [4,5]cycloocta[1,2,3-cd]inden-3-one], the IC50 (Table 4A) amounted to 5.87 nM.

`CC(C)(C)c1cc2c(cn1)-c1cnc(NCc3c(F)ccc4c3CCO4)n3cnc(c13)C(=O)N(CC(F)(F)F)C2` [E 46, 7-(tert-butyl)-12-(((5-fluoro-2,3-dihydrobenzofuran-4-yl)methyl)amino)-4-(2,2,2-trifluoroethyl)-4,5-dihydro-3H-2,4,8,11,12a-pentaazabenzo[4,5]cyclo octa[1,2,3-cd]inden-3-one]: where the note is “IC50 class, Table 4B”, the IC50 is below 10 nM.

As for `CN1Cc2ccc(C(F)(F)F)nc2-c2cnc(NCc3c(F)ccc4c3CCO4)n3cnc(c23)C1=O` [Compound 39, 12-(((5-fluoro-2,3-dihydrobenzofuran-4-yl)methyl)amino)-4-methyl-8-(trifluoromethyl)-4,5-dihydro-3H-2,4,9,11,12a-pentaazabenzo[4,5]cycloocta [1,2,3-cd]inden-3-one], the IC50 (Table 4A) amounted to 26.1 nM.

For `CC1(O)CC(CN2Cc3cc(C(F)(F)F)ncc3-c3cnc(NCc4c(F)ccc5c4CCO5)n4cnc(c34)C2=O)C1` (centres unmarked) [Compound 49, 12-(((5-fluoro-2,3-dihydrobenzofuran-4-yl)methyl)amino)-4-((3-hydroxy-3-methylcyclobutyl)methyl)-7-(trifluoromethyl)-4,5-dihydro-3H-2,4,8,11,12a-pentaazabenzo[4,5]cycloocta[1,2,3-cd]inden-3-one], where the note is “Table 4A”, the IC50 worked out at 1.81 nM.

For `O=C1c2ncn3c(NCc4c(F)ccc5c4CCO5)ncc(c23)-c2cnc(C(F)(F)F)cc2CN1CC(F)(F)F` [Compound 84, 12-(((5-fluoro-2,3-dihydrobenzofuran-4-yl)methyl)amino)-4-(2,2,2-trifluoroethyl)-7-(trifluoromethyl)-4,5-dihydro-3H-2,4,8,11,12a-pentaazabenzo[4,5] cycloocta[1,2,3-cd]inden-3-one], under “Table 4A”, the IC50 is 3.07 nM.

In the case of `CCc1ccc2c(n1)CN(CC(F)F)C(=O)c1ncn3c(NCc4c(F)ccc5c4CCO5)ncc-2c13` [E 13, 4-(2,2-difluoroethyl)-7-ethyl-12-(((5-fluoro-2,3-dihydrobenzofuran-4-yl)methyl)amino)-4,5-dihydro-3H-2,4,6,11,12a-pentaazabenzo[4,5]cycloocta [1,2,3-cd]inden-3-one], under “IC50 class, Table 4B”, the IC50 is below 10 nM.

On to `O=C1NCc2ncccc2-c2cnc(NCc3c(F)ccc4c3CCO4)n3cnc1c23` [Compound 16, 12-(((5-fluoro-2,3-dihydrobenzofuran-4-yl)methyl)amino)-4,5-dihydro-3H-2,4,6,11,12a-pentaazabenzo[4,5]cycloocta[1,2,3-cd]inden-3-one], for which, where the note is “Table 4A”, the IC50 worked out at 0.7 nM.

As for `CC(C)N1Cc2nc(C(F)(F)F)ccc2-c2cnc(NCc3c(F)ccc4c3CCO4)n3cnc(c23)C1=O` [Compound 59, 12-(((5-fluoro-2,3-dihydrobenzofuran-4-yl)methyl)amino)-4-isopropyl-7-(trifluoromethyl)-4,5-dihydro-3H-2,4,6,11,12a-pentaazabenzo[4,5]cycloocta [1,2,3-cd]inden-3-one], the IC50 (Table 4A) was 2.14 nM.

On to `O=C1c2ncn3c(NCc4c(F)ccc5c4CCO5)ncc(c23)-c2ccc(C(F)(F)F)cc2CN1CCF` [Compound 61, 12-(((5-fluoro-2,3-dihydrobenzofuran-4-yl)methyl)amino)-4-(2-fluoroethyl)-7-(trifluoromethyl)-4,5-dihydro-3H-2,4,11,12a-tetraazabenzo[4,5] cycloocta[1,2,3-cd]inden-3-one], for which, where the note is “Table 4A”, the IC50 was 1.19 nM.

As to `Cc1ccc2c(n1)CCN(CC(F)(F)F)C(=O)c1ncn3c(NCc4c(F)ccc5c4CCO5)ncc-2c13` [E 30, 13-(((5-fluoro-2,3-dihydrobenzofuran-4-yl)methyl)amino)-8-methyl-4-(2,2,2-trifluoroethyl)-5,6-dihydro-2,4,7,12,13a-pentaazabenzo[4,5] cyclonona[1,2,3-cd]inden-3(4H)-one], where the note is “IC50 class, Table 4B”, the IC50 was in the range of 10 to 100 nM.

For `O=C1c2ncn3c(NCc4c(F)ccc5c4CCO5)ncc(c23)-c2ccc(C(F)(F)F)nc2CN1CC(F)F` [E 8, 4-(2,2-difluoroethyl)-12-(((5-fluoro-2,3-dihydro-benzofuran-4-yl)methyl)amino)-7-(trifluoromethyl)-4,5-dihydro-3H-2,4,6, 11,12a-pentaazabenzo[4,5] cycloocta[1,2,3-cd]inden-3-one], the IC50 (IC50 class, Table 4B) is below 10 nM.

Consider `O=C1c2ncn3c(NCc4c(F)ccc5c4CCO5)ncc(c23)-c2ccc(C3CC3)nc2CN1CC(F)(F)F` [E 14, 7-cyclopropyl-12-(((5-fluoro-2,3-dihydrobenzo-furan-4-yl)methyl)amino)-4-(2,2,2-trifluoroethyl)-4,5-dihydro-3H-2,4,6,11,12a-pentaazabenzo[4,5] cycloocta[1,2,3-cd]inden-3-one], for which the IC50 (IC50 class, Table 4B) was below 10 nM.

Consider `O=C1c2ncn3c(NCc4c(F)ccc5c4CCO5)ncc(c23)-c2cnc(C(F)(F)F)cc2CN1C1CCC1` [E 5, 4-cyclobutyl-12-(((5-fluoro-2,3-dihydrobenzofuran-4-yl)methyl)amino)-7-(trifluoromethyl)-4,5-dihydro-3H-2,4,8,11,12a-pentaazabenzo[4,5] cycloocta[1,2,3-cd]inden-3-one], for which the IC50 (IC50 class, Table 4B) is below 10 nM.

Regarding `CS(=O)(=O)c1ccc2c(c1)NC(=O)c1ncn3c(NCc4c(F)ccc5c4CCO5)ncc-2c13` [Compound 5, 11-(((5-fluoro-2,3-dihydrobenzofuran-4-yl)methyl)amino)-6-(methylsulfonyl)-2,4,10,11a-tetraazadibenzo[cd,f]azulen-3(4H)-one], for the setting “Table 4A”, the IC50 came out at 0.26 nM.
